The assay has as its target T1, human androgen receptor (Homo sapiens, UniProt P10275).
T1 construct: expressed in transfected cells; host or cells: CHO cells, cell line CHO-AR-pMMTV-LUC 1G12-A5-CA
T1 sequence (P10275 1-920): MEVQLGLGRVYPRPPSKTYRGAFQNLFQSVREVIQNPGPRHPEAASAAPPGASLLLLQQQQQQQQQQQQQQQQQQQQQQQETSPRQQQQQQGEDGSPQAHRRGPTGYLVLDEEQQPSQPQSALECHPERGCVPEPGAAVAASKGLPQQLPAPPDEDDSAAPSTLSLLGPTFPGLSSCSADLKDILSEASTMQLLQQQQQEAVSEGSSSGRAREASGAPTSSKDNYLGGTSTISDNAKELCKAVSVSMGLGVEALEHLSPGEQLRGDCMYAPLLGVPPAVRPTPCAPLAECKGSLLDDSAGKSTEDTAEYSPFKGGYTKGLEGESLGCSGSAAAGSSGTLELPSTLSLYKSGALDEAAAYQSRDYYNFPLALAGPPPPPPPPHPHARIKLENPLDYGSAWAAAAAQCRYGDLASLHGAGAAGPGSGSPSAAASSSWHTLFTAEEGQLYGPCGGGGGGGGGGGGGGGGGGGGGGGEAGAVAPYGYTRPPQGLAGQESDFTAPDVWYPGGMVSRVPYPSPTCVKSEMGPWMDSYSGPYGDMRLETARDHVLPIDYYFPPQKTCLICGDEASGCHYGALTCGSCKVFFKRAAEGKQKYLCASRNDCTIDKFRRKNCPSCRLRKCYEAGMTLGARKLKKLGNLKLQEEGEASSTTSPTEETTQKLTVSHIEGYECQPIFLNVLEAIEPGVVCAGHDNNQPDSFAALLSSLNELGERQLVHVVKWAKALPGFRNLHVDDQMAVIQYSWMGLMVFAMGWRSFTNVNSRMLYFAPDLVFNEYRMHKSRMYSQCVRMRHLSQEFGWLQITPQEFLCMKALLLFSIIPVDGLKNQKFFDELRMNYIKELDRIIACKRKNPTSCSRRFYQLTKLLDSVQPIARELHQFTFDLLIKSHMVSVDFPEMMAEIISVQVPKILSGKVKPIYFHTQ
Put plainly: androgenic activity (EC50, potency, efficacy), transactivation bioassay in CHO-AR-pMMTV-LUC cells in the presence of 0.1 μmol/l onapristone (Table 5). In kind it is cell-based. To be noted: for Emax: read-out: ago efficacy; for ago potency: potency expressed as percentage of DHT activity, in the presence of 0.1 μmol/l onapristone. As to the method: The androgenic activity (EC50, potency, and efficacy) of the compounds in Table 5 was determined in an in vitro bioassay of Chinese hamster ovary (CHO) cells stably transfected with the human androgen receptor expression plasmid and a reporter plasmid in which the MMTV promoter is linked to the luciferase reporter gene. The cell line CHO-AR-pMMTV-LUC 1G12-A5-CA is described in Schoonen et al. (J. Steroid Biochem. Moles. Biol. […]; 74: 213-222). The androgen receptor activity of compounds was determined in the presence of 0.1 μmol/l onapristone. The maximal efficacy in the presence of 100 nmol/l DHT was set as 100%. The potencies are expressed as percentage of DHT activity.

The mark [1] stands for this setting: maximal intrinsic activity, activity in the presence of 100 nM DHT set at 1.00, CHO-AR-pMMTV-LUC cells, 0.1 μmol/l onapristone.

The structures appear in SMILES notation. Where two headings read alike, the source gives them in different places. Some results are limits rather than exact numbers.

`Cn1cnc(S(=O)(=O)Nc2ccc3c(Sc4ccccc4[N+](=O)[O-])cn(Cc4cc(F)cc(F)c4)c3c2)c1` [Compound 108, 1-Methyl-1H-imidazole-4-sulfonic acid [1-(3,5-difluoro-benzyl)-3-(2-nitro-phenylsulfanyl)-1H-indol-6-yl]-amide]: under setting [1], the Emax was above 80%. Besides, the ago potency result (CHO-AR-pMMTV-LUC cells) was “+ (between 1% and 5%)”.
Regarding `N#Cc1ccc2c(Sc3ccccc3[N+](=O)[O-])cn(Cc3ccncc3)c2c1` [Compound 122, 3-(2-Nitro-phenylsulfanyl)-1-pyridin-4-ylmethyl-1H-indole-6-carbonitrile], the Emax under setting [1] fell in the range of 50 to 80%. For the setting “CHO-AR-pMMTV-LUC cells”, the ago potency entry is “+ (between 1% and 5%)”.
As to `COc1ccc2c(Sc3ccccc3[N+](=O)[O-])cn(Cc3cc(F)c(F)c(F)c3)c2c1` [Compound 94, 6-Methoxy-3-(2-nitro-phenylsulfanyl)-1-(3,4,5-trifluoro-benzyl)-1H-indole], under setting [1], the Emax was above 80%. For the setting “CHO-AR-pMMTV-LUC cells”, the ago potency result was “+ (between 1% and 5%)”.
For `O=C(CF)Nc1ccc2c(Sc3ccccc3[N+](=O)[O-])cn(Cc3ccccn3)c2c1` [Compound 100, 2-Fluoro-N-[3-(2-nitro-phenylsulfanyl)-1-pyridin-2-ylmethyl-1H-indol-6-yl]-acetamide], the Emax is above 80%. Moreover, the ago potency result (CHO-AR-pMMTV-LUC cells) is “+ (between 1% and 5%)”.
As to `N#Cc1cccc(Cn2cc(Sc3ccccc3[N+](=O)[O-])c3ccc(C#N)cc32)c1` [Compound 125, 1-(3-Cyano-benzyl)-3-(2-nitro-phenylsulfanyl)-1H-indole-6-carbonitrile], under setting [1], the Emax is above 80%. Also, for the setting “CHO-AR-pMMTV-LUC cells”, the ago potency entry is “+ (between 1% and 5%)”.
As for `COc1ccc2c(Sc3ccccc3[N+](=O)[O-])cn(Cc3cnccn3)c2c1` [Compound 117, 6-Methoxy-3-(2-nitro-phenylsulfanyl)-1-pyrazin-2-ylmethyl-1H-indole], the Emax under setting [1] is 50 to 80%. In addition, the ago potency result (CHO-AR-pMMTV-LUC cells) was “+ (between 1% and 5%)”.
`O=C(CF)Nc1ccc2c(Sc3ccccc3[N+](=O)[O-])cn(Cc3cc(F)cc(F)c3)c2c1` [Compound 97, N-[1-(3,5-Difluoro-benzyl)-3-(2-nitro-phenylsulfanyl)-1H-indol-6-yl]-2-fluoro-acetamide]: the Emax was above 80%. Moreover, the ago potency entry (CHO-AR-pMMTV-LUC cells) is “+ (between 1% and 5%)”.
As to `COc1ccc2c(Sc3ccccc3[N+](=O)[O-])cn(Cc3cncnc3)c2c1` [Compound 115, 6-Methoxy-3-(2-nitro-phenylsulfanyl)-1-pyrimidin-5-ylmethyl-1H-indole], the Emax under setting [1] was in the range of 50 to 80%. Further, the ago potency entry (CHO-AR-pMMTV-LUC cells) is listed as “++ (>5%)”.
For the molecule `CN(C)C(=O)c1ccc2c(Sc3ccccc3[N+](=O)[O-])cn(Cc3ccccn3)c2c1` [Compound 109, 3-(2-Nitro-phenylsulfanyl)-1-pyridin-2-ylmethyl-1H-indole-6-carboxylic acid dimethylamide], under setting [1], the Emax is above 80%. Also, the ago potency result (CHO-AR-pMMTV-LUC cells) is “+ (between 1% and 5%)”.
Regarding `N#Cc1ccc2c(Sc3ccccc3[N+](=O)[O-])cn(Cc3ccncn3)c2c1` [Compound 124, 3-(2-Nitro-phenylsulfanyl)-1-pyrimidin-4-ylmethyl-1H-indole-6-carbonitrile], the Emax under setting [1] is above 80%. The ago potency result (CHO-AR-pMMTV-LUC cells) is given as “++ (>5%)”.
Take `COc1ccc2c(Sc3ccccc3[N+](=O)[O-])cn(Cc3cc(F)cc(F)c3F)c2c1` [Compound 95, 6-Methoxy-3-(2-nitro-phenylsulfanyl)-1-(2,3,5-trifluoro-benzyl)-1H-indole]: the Emax under setting [1] is above 80%. Also, under “CHO-AR-pMMTV-LUC cells”, the ago potency entry was “± (between 0.1% and 1%)”.
On to `N#Cc1ccc2c(Sc3ccccc3[N+](=O)[O-])cn(Cc3cncnc3)c2c1` [Compound 123, 3-(2-Nitro-phenylsulfanyl)-1-pyrimidin-5-ylmethyl-1H-indole-6-carbonitrile], for which the Emax under setting [1] was above 80%. For the same molecule, for the setting “CHO-AR-pMMTV-LUC cells”, the ago potency entry is recorded as “++ (>5%)”.
As for `CNC(=O)c1ccc2c(Sc3ccccc3[N+](=O)[O-])cn(Cc3cccnc3)c2c1` [Compound 112, 3-(2-Nitro-phenylsulfanyl)-1-pyridin-3-ylmethyl-1H-indole-6-carboxylic acid methylamide], under setting [1], the Emax lay within 20 to 50%. Besides, the ago potency result (CHO-AR-pMMTV-LUC cells) is “+ (between 1% and 5%)”.
Consider `O=C(NC1CC1)c1ccc2c(Sc3ccccc3[N+](=O)[O-])cn(Cc3cccnc3)c2c1` [Compound 114, 3-(2-Nitro-phenylsulfanyl)-1-pyridin-3-ylmethyl-1H-indole-6-carboxylic acid cyclopropylamide], for which, under setting [1], the Emax was above 80%. For the setting “CHO-AR-pMMTV-LUC cells”, the ago potency result is “+ (between 1% and 5%)”.
`O=C(CF)Nc1ccc2c(Sc3ccccc3[N+](=O)[O-])cn(Cc3cccnc3)c2c1` [Compound 104, 2-Fluoro-N-[3-(2-nitro-phenylsulfanyl)-1-pyridin-3-ylmethyl-1H-indol-6-yl]-acetamide]: the Emax is below 20%. The ago potency entry (CHO-AR-pMMTV-LUC cells) is “+ (between 1% and 5%)”.
Turning to `O=CNc1ccc2c(Sc3ccccc3[N+](=O)[O-])cn(Cc3cncnc3)c2c1` [Compound 118, N-[3-(2-Nitro-phenylsulfanyl)-1-pyrimidin-5-ylmethyl-1H-indol-6-yl]-formamide], the Emax under setting [1] fell in the range of 50 to 80%. In addition, the ago potency entry (CHO-AR-pMMTV-LUC cells) is “++ (>5%)”.
On to `O=[N+]([O-])c1ccccc1Sc1cn(Cc2cc(F)cc(F)c2)c2cc(NS(=O)(=O)c3ccsc3)ccc12` [Compound 107, Thiophene-3-sulfonic acid [1-(3,5-difluoro-benzyl)-3-(2-nitro-phenylsulfanyl)-1H-indol-6-yl]-amide], for which the Emax under setting [1] is above 80%. In addition, the ago potency entry (CHO-AR-pMMTV-LUC cells) is “+ (between 1% and 5%)”.
For `N#Cc1ccc2c(Sc3ccccc3[N+](=O)[O-])cn(Cc3cccnc3)c2c1` [Compound 121, 3-(2-Nitro-phenylsulfanyl)-1-pyridin-3-ylmethyl-1H-indole-6-carbonitrile], the Emax under setting [1] is above 80%. Also, the ago potency result (CHO-AR-pMMTV-LUC cells) was “+ (between 1% and 5%)”.
With `CCC(=O)Nc1ccc2c(Sc3ccccc3[N+](=O)[O-])cn(Cc3cc(F)cc(F)c3)c2c1` [Compound 99, N-[1-(3,5-Difluoro-benzyl)-3-(2-nitro-phenylsulfanyl)-1H-indol-6-yl]-propionamide], the Emax under setting [1] fell in the range of 50 to 80%. Further, the ago potency result (CHO-AR-pMMTV-LUC cells) was “± (between 0.1% and 1%)”.
For the molecule `CCC(=O)Nc1ccc2c(Sc3ccccc3[N+](=O)[O-])cn(Cc3ccccn3)c2c1` [Compound 102, N-[3-(2-Nitro-phenylsulfanyl)-1-pyridin-2-ylmethyl-1H-indol-6-yl]-propionamide], the Emax under setting [1] lay within 50 to 80%. The ago potency result (CHO-AR-pMMTV-LUC cells) is “+ (between 1% and 5%)”.
`CCNC(=O)c1ccc2c(Sc3ccccc3[N+](=O)[O-])cn(Cc3cccnc3)c2c1` [Compound 113, 3-(2-Nitro-phenylsulfanyl)-1-pyridin-3-ylmethyl-1H-indole-6-carboxylic acid ethylamide]: under setting [1], the Emax lay within 50 to 80%. Where the note is “CHO-AR-pMMTV-LUC cells”, the ago potency entry was “+ (between 1% and 5%)”.
For `N#Cc1ccc2c(Sc3ccccc3[N+](=O)[O-])cn(Cc3ccccn3)c2c1` [Compound 119, 3-(2-Nitro-phenylsulfanyl)-1-pyridin-2-ylmethyl-1H-indole-6-carbonitrile], the Emax under setting [1] is above 80%. Besides, the ago potency entry (CHO-AR-pMMTV-LUC cells) is reported as “++ (>5%)”.
Take `CCC(=O)Nc1ccc2c(Sc3ccccc3[N+](=O)[O-])cn(Cc3cccnc3)c2c1` [Compound 105, N-[3-(2-Nitro-phenylsulfany)-1-pyridin-3-ylmethyl-1H-indol-6-yl]-propionamide]: under setting [1], the Emax fell in the range of 20 to 50%. The ago potency entry (CHO-AR-pMMTV-LUC cells) is “+ (between 1% and 5%)”.
With `COc1ccc2c(Sc3ccccc3[N+](=O)[O-])cn(Cc3ccncc3)c2c1` [Compound 93, 6-Methoxy-3-(2-nitro-phenylsulfanyl)-1-pyridin-4-ylmethyl-1H-indole], the Emax under setting [1] was in the range of 50 to 80%. Besides, the ago potency result (CHO-AR-pMMTV-LUC cells) is “± (between 0.1% and 1%)”.
Take `CNC(=O)c1ccc2c(Sc3ccccc3[N+](=O)[O-])cn(Cc3ccccn3)c2c1` [Compound 110, 3-(2-Nitro-phenylsulfanyl)-1-pyridin-2-ylmethyl-1H-indole-6-carboxylic acid methylamide]: the Emax under setting [1] is 50 to 80%. Moreover, the ago potency entry (CHO-AR-pMMTV-LUC cells) is “+ (between 1% and 5%)”.
